Among the data in patent publication US20050209278A1, “Piperidinyl- and piperazinyl-sulfonylmethyl hydroxamic acids and their use as protease inhibitors” (priority 2002, published 2005) are Ki values, retold here.

What all share (assay type): biochemical
One experiment deals with T1, MMP-1 (Homo sapiens, UniProt P03956).
T1 construct: made in house; host or cells: MMP-1-transfected HT-1080 cells (spent media)
T1 sequence (P03956 100-469): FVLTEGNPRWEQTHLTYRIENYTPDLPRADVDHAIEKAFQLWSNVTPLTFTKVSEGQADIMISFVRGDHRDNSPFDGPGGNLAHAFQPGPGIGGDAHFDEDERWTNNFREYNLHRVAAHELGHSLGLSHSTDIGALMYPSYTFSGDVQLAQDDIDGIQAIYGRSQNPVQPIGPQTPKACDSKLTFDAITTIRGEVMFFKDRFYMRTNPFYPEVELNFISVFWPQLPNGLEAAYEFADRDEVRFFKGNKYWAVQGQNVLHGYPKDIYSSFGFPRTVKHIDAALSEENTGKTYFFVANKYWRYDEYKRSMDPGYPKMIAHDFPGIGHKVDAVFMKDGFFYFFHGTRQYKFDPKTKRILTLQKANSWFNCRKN
Nature of the experiment: MMP-1 inhibition (in vitro Ki). As to conditions: Table 8; read-out: MMP-1 Ki.

The next experiment deals with T2, MMP-2 (Homo sapiens, UniProt P08253).
T2 construct: made in house; host or cells: MMP-2-transfected p2AHT2 cells
T2 sequence (P08253 110-660): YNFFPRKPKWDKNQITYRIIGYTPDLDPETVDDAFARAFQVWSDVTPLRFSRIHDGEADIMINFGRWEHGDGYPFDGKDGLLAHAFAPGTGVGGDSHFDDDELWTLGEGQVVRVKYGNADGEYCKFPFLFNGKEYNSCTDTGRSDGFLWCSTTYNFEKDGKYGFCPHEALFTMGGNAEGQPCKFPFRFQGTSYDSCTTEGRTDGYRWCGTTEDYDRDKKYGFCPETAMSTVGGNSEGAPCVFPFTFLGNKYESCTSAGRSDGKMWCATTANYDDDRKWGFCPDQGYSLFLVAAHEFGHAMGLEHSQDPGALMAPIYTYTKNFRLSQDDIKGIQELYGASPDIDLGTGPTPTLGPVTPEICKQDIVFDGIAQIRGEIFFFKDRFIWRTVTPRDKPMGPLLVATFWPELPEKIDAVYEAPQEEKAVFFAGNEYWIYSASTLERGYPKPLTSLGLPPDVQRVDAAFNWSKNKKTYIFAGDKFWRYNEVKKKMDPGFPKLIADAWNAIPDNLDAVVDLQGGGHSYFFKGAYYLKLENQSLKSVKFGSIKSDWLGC
Nature of the experiment: MMP-2 inhibition (in vitro Ki). As to conditions: Table 8; read-out: MMP-2 Ki.

A further experiment deals with T3, MMP-9 (Homo sapiens, UniProt P14780).
T3 construct: made in house; host or cells: MMP-9-transfected HT1080 cells (spent media)
T3 sequence (P14780 107-707 limits assumed): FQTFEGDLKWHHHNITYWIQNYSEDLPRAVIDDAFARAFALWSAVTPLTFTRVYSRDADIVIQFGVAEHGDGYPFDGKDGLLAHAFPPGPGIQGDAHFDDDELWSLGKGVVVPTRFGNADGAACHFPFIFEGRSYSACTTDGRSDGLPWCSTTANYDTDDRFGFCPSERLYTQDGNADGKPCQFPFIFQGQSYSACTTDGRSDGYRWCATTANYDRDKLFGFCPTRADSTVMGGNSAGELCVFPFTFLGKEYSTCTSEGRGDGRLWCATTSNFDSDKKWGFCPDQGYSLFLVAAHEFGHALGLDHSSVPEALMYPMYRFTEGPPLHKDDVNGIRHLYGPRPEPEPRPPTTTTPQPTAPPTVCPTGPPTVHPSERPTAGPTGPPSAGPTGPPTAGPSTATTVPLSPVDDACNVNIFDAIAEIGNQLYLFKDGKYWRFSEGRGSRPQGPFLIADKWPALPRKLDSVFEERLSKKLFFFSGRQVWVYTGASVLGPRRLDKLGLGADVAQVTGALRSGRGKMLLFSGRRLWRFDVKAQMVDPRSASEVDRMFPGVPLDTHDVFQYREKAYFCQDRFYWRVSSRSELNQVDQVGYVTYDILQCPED
Nature of the experiment: MMP-9 inhibition (in vitro Ki). As to conditions: Table 8; read-out: MMP-9 Ki.

For the next experiment, the target named is T4, MMP-13 (Homo sapiens, UniProt P45452).
T4 construct: made in house; host or cells: baculovirus / insect cells
Nature of the experiment: MMP-13 inhibition (in vitro Ki). As to conditions: Table 8; read-out: MMP-13 Ki.

A further experiment has as its target T5, MMP-14 (Homo sapiens, UniProt P50281).
T5 construct: The catalytic domain enzyme was expressed in E. coli inclusion bodies, solubilized in urea; made in house
Nature of the experiment: MMP-14 inhibition (in vitro Ki). As to conditions: Table 8; read-out: MMP-14 Ki.

Where a name gives a salt, the structure may show the parent alone.

For the compound `O=C(NO)C1(S(=O)(=O)N2CCC(CCOCCCC(F)(F)F)CC2)CCOCC1` [Example A45, 4-{4-[2-(4,4,4-trifluoro-butoxy)-ethyl]-piperidine-1-sulfonyl}-tetrahydro-pyran-4-carboxylic Acid Hydroxyamide], the Ki was over 10000 nM on MMP-1; 23.6 nM at MMP-2; 16.8 nM at MMP-9; 12.2 nM at MMP-13; over 10000 nM on MMP-14.
On to `O=C(NO)C1(S(=O)(=O)N2CCC(CCCCOCCC(F)(F)F)CC2)CCOCC1` [Example A46, 4-{4-[4-(3,3,3-trifluoro-propoxy)-butyl]-piperidine-1-sulfonyl}-tetrahydro-pyran-4-carboxylic Acid Hydroxyamide], for which the Ki is 1500 nM on MMP-1; 5.97 nM on MMP-2; 17.5 nM at MMP-9; 0.52 nM on MMP-13; 3610 nM at MMP-14.
For `CCCCCOCCC1CCN(S(=O)(=O)C2(C(=O)NO)CCOCC2)CC1` [Example A47, 4-[4-(2-pentyloxy-ethyl)-piperidine-1-sulfonyl]-tetrahydro-pyran-4-carboxylic Acid Hydroxyamide], the Ki on MMP-1 is over 10000 nM; at MMP-2, 18.6 nM; at MMP-9 it was 10.2 nM; on MMP-13, 12.7 nM; at MMP-14 it was over 10000 nM.
Turning to `O=C(NO)C1(S(=O)(=O)N2CCC(OCCCCCCC(F)(F)F)CC2)CCOCC1` [Example A48, 4-[4-(7,7,7-trifluoro-heptyloxy)-piperidine-1-sulfonyl]-tetrahydro-pyran-4-carboxylic Acid Hydroxyamide], the inhibition constant (Ki) at MMP-1 is over 10000 nM; at MMP-2, 3.49 nM; at MMP-9, 8.23 nM; at MMP-13 it was 1.13 nM; on MMP-14, 2710 nM.
For `O=C(NO)C1(S(=O)(=O)N2CCC(OCCCCCC(F)(F)F)CC2)CCOCC1` [Example A49, 4-[4-(6,6,6-trifluoro-hexyloxy)-piperidine-1-sulfonyl]-tetrahydro-pyran-4-carboxylic Acid Hydroxyamide], in that order: over 10000 nM, 3.81 nM, 3.1 nM, 2.87 nM and 6740 nM.
In the case of `O=C(NO)C1(S(=O)(=O)N2CCC(OCCCCCC(F)(F)C(F)(F)F)CC2)CCOCC1` [Example A50, 4-[4-(6,6,7,7,7-pentafluoro-heptyloxy)-piperidine-1-sulfonyl]-tetrahydro-pyran-4-carboxylic Acid Hydroxyamide], the Ki was over 10000 nM on MMP-1; 1.57 nM at MMP-2; 7.1 nM at MMP-9; 0.6 nM at MMP-13; 4560 nM on MMP-14.
As for `O=C(NO)C1(S(=O)(=O)N2CCC(CCCCCCC(F)(F)C(F)(F)F)CC2)CCOCC1` [Example A51, 4-[4-(7,7,8,8,8-pentafluoro-octyl)-piperidine-1-sulfonyl]-tetrahydro-pyran-4-carboxylic Acid Hydroxyamide], the Ki on MMP-1 amounted to 5110 nM; at MMP-2 it was 0.27 nM; at MMP-9, 1.01 nM; on MMP-13, 0.27 nM; at MMP-14, 1260 nM.
Take `O=C(NO)C1(S(=O)(=O)N2CCC(CCCCCCCC(F)(F)F)CC2)CCOCC1` [Example A52, 4-[4-(8,8,8-trifluoro-octyl)-piperidine-1-sulfonyl]-tetrahydro-pyran-4-carboxylic Acid Hydroxyamide]: the Ki at MMP-1 is 3930 nM; on MMP-2, 0.55 nM; on MMP-9, 1.03 nM; on MMP-13, 0.23 nM; on MMP-14, 922 nM.
For `O=C(NO)C1(S(=O)(=O)N2CCC(CCCCC(F)(F)C(F)(F)F)CC2)CCOCC1` [Example A53, 4-[4-(5,5,6,6,6-pentafluoro-hexyl)-piperidine-1-sulfonyl]-tetrahydro-pyran-4-carboxylic Acid Hydroxyamide], the Ki was determined as 2880 nM at MMP-1; 1.1 nM at MMP-2; 2.46 nM at MMP-9; 2.45 nM at MMP-13; 2360 nM at MMP-14.
The matching figures for `O=C(NO)C1(S(=O)(=O)N2CCC(CCCCCC(F)(F)C(F)(F)F)CC2)CCOCC1` [Example A54, 4-[4-(6,6,7,7,7-pentafluoro-heptyl)-piperidine-1-sulfonyl]-tetrahydro-pyran-4-carboxylic Acid Hydroxyamide]: over 10000 nM, 1.06 nM, 0.81 nM, 0.67 nM and 3410 nM.
For the compound `O=C(NO)C1(S(=O)(=O)N2CCC(c3ccc(CCC(F)(F)C(F)(F)F)cn3)CC2)CCCCC1` [Example A56, N-hydroxy-1-({4-[5-(3,3,4,4,4-pentafluorobutyl)pyridin-2-yl]piperidin-1-yl}sulfonyl)cyclohexanecarboxamide Hydrochloride], the Ki on MMP-1 amounted to 2470 nM; on MMP-2 it was 0.47 nM; on MMP-9 it was 0.15 nM; on MMP-13, 0.14 nM; on MMP-14 it was 1010 nM.
Turning to `O=C(NO)C1(S(=O)(=O)N2CCC(c3ccc(OCC(F)(F)F)cn3)CC2)CCOCC1` [Example A57, N-hydroxy-4-({4-[5-(2,2,2-trifluoroethoxy)pyridin-2-yl]piperidin-1-yl}sulfonyl)tetrahydro-2H-pyran-4-carboxamide Hydrochloride], the inhibition constant (Ki) on MMP-1 turned out to be 1570 nM; on MMP-2, 0.53 nM; at MMP-9 it was 0.48 nM; at MMP-13, 0.34 nM; at MMP-14, 2020 nM.
For `O=C(NO)C1(S(=O)(=O)N2CCC(c3ccc(OCC(F)(F)C(F)(F)F)cn3)CC2)CCOCC1` [Example A58, N-hydroxy-4-({4-[5-(2,2,3,3,3-pentafluoropropoxy)pyridin-2-yl]piperidin-1-yl}sulfonyl)tetrahydro-2H-pyran-4-carboxamide Hydrochloride], the Ki amounted to 1550 nM at MMP-1; 0.52 nM on MMP-2; 1.37 nM on MMP-9; 0.24 nM at MMP-13; 6230 nM at MMP-14.
Take `O=C(NO)C1(S(=O)(=O)N2CCC(c3ccc(OCC(F)(F)C(F)F)cn3)CC2)CCOCC1` [Example A59, N-hydroxy-4-({4-[5-(2,2,3,3-tetrafluoropropoxy)pyridin-2-yl]piperidin-1-yl}sulfonyl)tetrahydro-2H-pyran-4-carboxamide Hydrochloride]: the Ki was 1660 nM at MMP-1; 0.76 nM at MMP-2; 1.54 nM on MMP-9; 0.62 nM at MMP-13; 5150 nM at MMP-14.
The matching figures for `CCC(CC)(C(=O)NO)S(=O)(=O)N1CCC(c2ccc(CCC(F)(F)C(F)(F)F)cn2)CC1` [Example A60, 2-ethyl-N-hydroxy-2-({4-[5-(3,3,4,4,4-pentafluorobutyl)pyridin-2-yl]piperidin-1-yl}sulfonyl)butanamide Hydrochloride]: 9180 nM, 1.23 nM, 0.63 nM, 0.4 nM and 6070 nM.
On to `COCCC(CCOC)(C(=O)NO)S(=O)(=O)N1CCC(c2ccc(CCC(F)(F)C(F)(F)F)cn2)CC1` [Example A61, N-hydroxy-4-methoxy-2-(2-methoxyethyl)-2-({4-[5-(3,3,4,4,4-pentafluorobutyl)pyridin-2-yl]piperidin-1-yl}sulfonyl)butanamide Hydrochloride], for which the Ki on MMP-1 turned out to be 3530 nM; at MMP-2, 0.98 nM; on MMP-9, 0.38 nM; at MMP-13 it was 0.16 nM; at MMP-14 it was 4170 nM.
The matching figures for `O=C(NO)C1(S(=O)(=O)N2CCN(c3ccc(CCCC(F)(F)F)c(F)c3)CC2)CCN(C2CC2)CC1` [Example A62, 1-cyclopropyl-4-({4-[3-fluoro-4-(4,4,4-trifluorobutyl)phenyl]piperazin-1-yl}sulfonyl)-N-hydroxypiperidine-4-carboxamide Hydrochloride]: over 10000 nM, 0.73 nM, 1.74 nM, 0.56 nM and 9050 nM.
